Measurements: patent publication US8575193B2, “N-substituted tetrahydroisoquinoline/isoindoline hydroxamic acid compounds” (4SC AG, priority 2008, dated 2013)
Where a name gives a salt, the structure may show the parent alone.

Key:
[1] = Cellular cytotoxicity assay (Alamar Blue/Resazurin), RKOp21; format: cell-based; conditions: human, RKOp21 cells; RKOp21, 72 hours incubation, Resazurin; read-out: RKOp21 Cytotoxicity [pIC50] (converted)
Experimental: The anti-proliferative activity of the compounds as described herein, is evaluated with various solid and hematological cancer cell lines using the Alamar Blue (Resazurin) cell viability assay (O'Brien et al, Eur J Biochem 267, 5421-5426, 2000). Resazurin is reduced to the fluorescent resorufin by cellular dehydrogenase activity, correlating with viable, proliferating cells. Test compounds are dissolved as 20 mM solutions in dimethylsulfoxide (DMSO) and subsequently diluted in semi-logarithmic steps. The cancer cell lines are seeded into 96 well flat bottom plates at respective cell densities in a volume of 200 μl per well to allow continuous proliferation during the experiment. 24 hours after seeding 1 μl each of the compound dilutions is added into each well of the 96 well plate. Wells containing untreated control cells are filled with 200 μl DMEM medium containing 0.5% v:v DMSO. The cells are then incubated with the substances for 72 hours at 37° C. in a humidified atmosphere containing 5% carbon dioxide. To determine the viability of the cells, 20 μl of a Resazurin solution (Sigma; 90 mg/l) are added. After 4 hours incubation at 37° C. the fluorescence is measured at an extinction of 544 nm and an emission of 590 nm. For the calculation of the cell viability the emission value from untreated cells is set as 100% viability and the emission rates of treated cells are set in relation to the values of untreated cells. Viabilities are expressed as % values. The corresponding pIC50 values of the compounds for cytotoxic activity are determined from the concentration-effect curves by means of non-linear regression.

[2] = system: nuclear HeLa extract (mixture of class I and II HDACs); assay: Fluorimetric HDAC activity assay with nuclear HeLa extract; format: biochemical, human; conditions: nuclear HeLa extract inhibitory activity, substrate Ac-NH-GGK(Ac)-AMC 25 μM, 90 min at 30° C.
Experimental: HDAC activity is isolated from nuclear HeLa extracts according to a method original described by Dignam et al. (Nucl. Acids Res. 11, pp 1475, 1983). Briefly, nuclei isolated from HeLa cells (CIL SA, Seneffe, Belgium) are resuspended in buffer C (20 mM Hepes pH 7.9, 25% v:v glycerol, 0.42M NaCl, 1.5 mM MgCl2, 0.2 mM EDTA, 0.5 mM PefaBloc and 0.5 mM DTT) and stirred for 30 min on ice. After centrifugation, the supernatant is dialysed against buffer D (40 mM Tris HCl pH 7.4, 100 mM KCl, 0.2 mM EDTA, 0.5 mM DTT and 25% v:v glycerol) for 5 h at 4° C. After dialysis and centrifugation, the supernatant is stored in aliquots at −80° C. and used for Western blot analysis as well as the enzymatic assay as described in the following.
The HDAC enzyme activity assay is done as described by Wegener et al. (Chem. & Biol. 10, 61-68, 2003). […] After incubation at room temperature for further 40 min, fluorescence is measured using a Wallac Victor 1420 multilabel counter (Ex 355 nm, Em 460 nm) for quantification of AMC (7-amino-4-methylcoumarin) generated by trypsine cleavage of the deacetylated peptide. […] The corresponding pIC50 values of the compounds for HDAC inhibitory activity are determined from the concentration-effect curves by means of non-linear regression (Graphpad Prism software).

SMILES | IC50 at 72 h [1] | also measured
COCCCNC(=O)N1CCc2cc(C(=O)NO)ccc2C1 [Example 5, N6-Hydroxy-N2-(3-methoxypropyl)-3,4-dihydroisoquinoline-2,6(1H)-dicarboxamide] | > 100 µM | –
COCCOCC(=O)N1CCc2cc(C(=O)NO)ccc2C1 [Example 11, N-Hydroxy-2-[(2-methoxyethoxy)acetyl]-1,2,3,4-tetrahydroisoquinoline-6-carboxamide] | – | HeLa nuclear extract [pIC50] ([2]; listed as Ex. 11): 4.22
O=C(NO)c1ccc2c(c1)CCN(C(=O)C1CC1)C2 [Example 16, N-Hydroxy-2-(cyclopropylcarbonyl)-1,2,3,4-tetrahydroisoquinoline-6-carboxamide] | – | melting point: 90 °C
CN(C)CCCC(=O)N1CCc2cc(C(=O)NO)ccc2C1 [Example 9, 2-[4-(Dimethylamino)butanoyl]-N-hydroxy-1,2,3,4-tetrahydroisoquinoline-6-carboxamide hydrochloride] | > 100 µM | –
O=C(NO)c1ccc2c(c1)CCN(C(=O)Cc1c[nH]c3ccccc13)C2 [Example 1, N-Hydroxy-2-(indol-3-ylacetyl)-1,2,3,4-tetrahydroisoquinoline-6-carboxamide hydrochloride] | 1 to 100 µM | –
O=C(NO)c1ccc2c(c1)CCN(C(=O)C1CCOC1)C2 (centres unmarked) [Example 13, N-Hydroxy-2-(tetrahydrofuran-3-ylcarbonyl)-1,2,3,4-tetrahydroisoquinoline-6-carboxamide] | > 100 µM | –
O=C(NO)c1ccc2c(c1)CN(C(=O)C1CCOC1)CC2 (centres unmarked) [Example 20, N-Hydroxy-2-(tetrahydrofuran-3-ylcarbonyl)-1,2,3,4-tetrahydroisoquinoline-7-carboxamide] | > 100 µM | –
O=C(NO)c1ccc2c(c1)CCN(C(=O)C1CCC1)C2 [Example 3, 2-(Cyclobutylcarbonyl)-N-hydroxy-1,2,3,4-tetrahydroisoquinoline-6-carboxamide] | > 100 µM | –
O=C(NO)c1ccc2c(c1)CCN(C(=O)Cc1cccnc1)C2 [Example 8, N-Hydroxy-2-(pyridin-3-ylacetyl)-1,2,3,4-tetrahydroisoquinoline-6-carboxamide hydrochloride] | > 100 µM | –
COc1ccc2[nH]c(C(=O)N3CCc4cc(C(=O)NO)ccc4C3)cc2c1 [Example 15, N-Hydroxy-2-[(5-methoxy-1H-indol-2-yl)carbonyl]-1,2,3,4-tetrahydroisoquinoline-6-carboxamide] | – | HeLa nuclear extract [pIC50] ([2]; listed as Ex. 15): 6.10; melting point: 156 °C
COc1ccc2[nH]c(C(=O)N3CCc4ccc(C(=O)NO)cc4C3)cc2c1 [Example 24, N-Hydroxy-2-[(5-methoxy-1H-indol-2-yl)carbonyl]-1,2,3,4-tetrahydroisoquinoline-7-carboxamide] | 1 to 100 µM | –
CNC(=O)N1CCc2cc(C(=O)NO)ccc2C1 [Example 4, N6-Hydroxy-N2-methyl-3,4-dihydroisoquinoline-2,6(1H)-dicarboxamide] | > 100 µM | –
COCCCOC(=O)N1CCc2cc(C(=O)NO)ccc2C1 [Example 6, 3-Methoxypropyl-6-(hydroxycarbamoyl)-3,4-dihydroisoquinoline-2(1H)-carboxylate] | > 100 µM | –
